Data set [1] in a line: Clearance in rat liver S9 fraction assessed as measuring per mg protein. Particulars: read-out: CLH. Format: ADME, subcellular.
For data set [2], the target named is T1, Tyrosine-protein kinase TXK (Homo sapiens) (UniProt P42681).
T1 sequence (whole entry): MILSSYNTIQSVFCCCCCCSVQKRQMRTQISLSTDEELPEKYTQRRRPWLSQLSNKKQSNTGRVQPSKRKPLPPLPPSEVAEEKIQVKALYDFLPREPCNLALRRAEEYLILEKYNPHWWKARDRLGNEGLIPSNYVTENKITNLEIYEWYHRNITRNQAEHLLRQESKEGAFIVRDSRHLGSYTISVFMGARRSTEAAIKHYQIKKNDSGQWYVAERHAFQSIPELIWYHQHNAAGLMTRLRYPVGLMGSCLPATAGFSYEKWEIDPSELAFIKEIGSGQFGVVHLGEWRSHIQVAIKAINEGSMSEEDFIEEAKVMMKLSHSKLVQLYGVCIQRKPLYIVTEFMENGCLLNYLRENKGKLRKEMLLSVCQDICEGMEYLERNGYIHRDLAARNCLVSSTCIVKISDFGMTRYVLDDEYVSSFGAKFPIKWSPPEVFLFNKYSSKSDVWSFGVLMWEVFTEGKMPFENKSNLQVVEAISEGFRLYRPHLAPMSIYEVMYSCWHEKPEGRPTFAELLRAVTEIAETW
As to the kind of experiment: Displacement of competitive tracer from RLK (unknown origin) assessed as target occupancy at […] preincubated for 15 mins measured for 6 hrs relative to control. Conditions: dose 1.5 µM.

Data set [3] concerns the target Sodium-dependent dopamine transporter (Homo sapiens) (UniProt Q01959). As to the kind of experiment: Displacement of [3H]BTCP from recombinant human dopamine transporter DAT at 10 uM incubated for 120 mins by radiometric scintillation assay relative to control. (Loss of bound radioactivity is the signal in a displacement assay; it reports binding, not function.)
Data set [4] concerns the target T2, Tyrosine-protein kinase ITK/TSK (Homo sapiens) (UniProt Q08881).
T2 sequence (whole entry): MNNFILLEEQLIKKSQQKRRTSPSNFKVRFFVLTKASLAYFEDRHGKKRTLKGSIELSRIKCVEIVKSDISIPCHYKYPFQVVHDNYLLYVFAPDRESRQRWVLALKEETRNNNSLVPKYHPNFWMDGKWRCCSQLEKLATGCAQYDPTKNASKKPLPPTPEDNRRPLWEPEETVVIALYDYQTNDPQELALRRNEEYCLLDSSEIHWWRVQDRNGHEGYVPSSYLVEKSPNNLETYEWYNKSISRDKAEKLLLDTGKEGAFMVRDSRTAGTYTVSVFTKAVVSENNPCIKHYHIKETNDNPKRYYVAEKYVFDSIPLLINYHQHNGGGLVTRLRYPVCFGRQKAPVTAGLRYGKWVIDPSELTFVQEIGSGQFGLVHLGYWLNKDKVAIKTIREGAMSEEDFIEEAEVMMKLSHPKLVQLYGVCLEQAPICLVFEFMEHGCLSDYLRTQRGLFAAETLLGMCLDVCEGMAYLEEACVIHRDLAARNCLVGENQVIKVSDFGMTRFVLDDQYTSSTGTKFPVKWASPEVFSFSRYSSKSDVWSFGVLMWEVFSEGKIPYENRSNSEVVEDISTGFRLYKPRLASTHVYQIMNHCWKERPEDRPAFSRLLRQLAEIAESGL
In words: Displacement of competitive tracer from ITK (unknown origin) assessed as target occupancy at […] preincubated for 15 mins measured for 24 hrs relative to control. Conditions: dose 1.5 µM.

The nature of data set [5]: Toxicity in female Beagle dog assessed as NOAEL. On the set-up: species or system Canis lupus familiaris. Particulars: in vivo.
The nature of data set [6]: Drug concentration in plasma of collagen-induced arthritis Lewis rat model 10 mg/kg/day, po measured after 6 hrs post-collection of plasma. Format: ADME, organism-based.
A short description of data set [7]: Drug concentration in plasma of collagen-induced arthritis Lewis rat model 10 mg/kg/day, po measured after 12 hrs post-collection of plasma. Type of data set: ADME, organism-based.
Data set [8] can be described thus: Drug concentration in plasma of collagen-induced arthritis Lewis rat model 30 mg/kg/day, po measured after 6 hrs post-collection of plasma. Type of data set: ADME, organism-based.
Data set [9] can be described thus: Toxicity in male Beagle dog assessed as drug tolerance up to 400 mg/kg/day qd for 12 weeks. Type of data set: organism-based, Canis lupus familiaris. Conditions: in vivo, 2016 h.
The nature of data set [10]: Toxicity in female Beagle dog assessed as weight loss up to 400 mg/kg/day qd for 12 weeks. Type of data set: organism-based, Canis lupus familiaris. Conditions: in vivo, 2016 h.
The target in data set [11] is T1, Tyrosine-protein kinase TXK (Homo sapiens). As to the kind of experiment: Displacement of competitive tracer from RLK (unknown origin) assessed as target occupancy at […] preincubated for 15 mins measured for 24 hrs relative to control. Particulars: dose 1.5 µM.
In a further data set the test system is Rattus norvegicus. As to the kind of experiment: Antiarthritic activity in collagen-induced arthritis Lewis rat model assessed as inhibition of ankle diameter administered orally daily for 10 days. Type of data set: functional, organism-based. Conditions: dose 3-30 mg/kg/day, route po, time 10.0 day, DDE = dose-dependent effect.
A further data set concerns Canis lupus familiaris. In words: Effect on canine pemphigus foliaceous dog model assessed as reduction in lesion at 8 to 21 mg/kg measured for 2 weeks. Format: functional, organism-based. Conditions: dose lower 8.0 mg/kg, dose upper […].
Data set [12] in a line: Drug concentration in plasma of collagen-induced arthritis Lewis rat model 3 mg/kg/day, po measured after 6 hrs post-collection of plasma. Type of data set: ADME, organism-based.
In data set [13] the target is Tyrosine-protein kinase Blk (Homo sapiens, UniProt P51451). As to the kind of experiment: Displacement of competitive tracer from BLK (unknown origin) assessed as target occupancy at […] preincubated for 15 mins measured for 24 hrs relative to control. Conditions: dose 1.5 µM.
Tyrosine-protein kinase Blk, sequence (P51451 2-505 limits assumed): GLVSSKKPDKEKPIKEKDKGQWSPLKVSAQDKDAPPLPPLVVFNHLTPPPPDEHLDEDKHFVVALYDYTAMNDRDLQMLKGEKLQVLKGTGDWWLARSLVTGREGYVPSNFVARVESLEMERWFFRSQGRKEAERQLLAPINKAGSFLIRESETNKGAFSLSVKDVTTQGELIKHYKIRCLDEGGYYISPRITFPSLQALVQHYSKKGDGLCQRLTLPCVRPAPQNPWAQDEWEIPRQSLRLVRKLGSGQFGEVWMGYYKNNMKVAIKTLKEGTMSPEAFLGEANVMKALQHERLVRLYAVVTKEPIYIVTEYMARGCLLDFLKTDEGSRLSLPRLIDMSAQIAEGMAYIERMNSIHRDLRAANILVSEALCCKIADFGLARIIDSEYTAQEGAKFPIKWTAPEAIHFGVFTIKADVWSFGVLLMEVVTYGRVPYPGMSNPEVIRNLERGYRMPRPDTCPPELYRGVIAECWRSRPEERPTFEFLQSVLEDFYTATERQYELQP
Data set [14] can be described thus: Inhibition of NFAT activation in anti-CD3/anti-CD28-stimulated human Jurkat T cells. Format: cell-based.
For data set [15], the target named is T2, Tyrosine-protein kinase ITK/TSK (Homo sapiens). In words: Displacement of competitive tracer from ITK (unknown origin) assessed as target occupancy at […] preincubated for 15 mins measured for 1 hr relative to control. Particulars: dose 1.5 µM.
A short description of data set [16]: Mutagenicity in Salmonella typhimurium by Ames test. Format: toxicity. Particulars: salmonella enterica subsp. enterica serovar typhimurium. In general terms: The Ames test uses bacterial strains that need an amino acid and regain growth without it when mutated back.
Data set [17] addresses T3, Cytoplasmic tyrosine-protein kinase BMX (Homo sapiens) (UniProt P51813).
T3 sequence (whole entry): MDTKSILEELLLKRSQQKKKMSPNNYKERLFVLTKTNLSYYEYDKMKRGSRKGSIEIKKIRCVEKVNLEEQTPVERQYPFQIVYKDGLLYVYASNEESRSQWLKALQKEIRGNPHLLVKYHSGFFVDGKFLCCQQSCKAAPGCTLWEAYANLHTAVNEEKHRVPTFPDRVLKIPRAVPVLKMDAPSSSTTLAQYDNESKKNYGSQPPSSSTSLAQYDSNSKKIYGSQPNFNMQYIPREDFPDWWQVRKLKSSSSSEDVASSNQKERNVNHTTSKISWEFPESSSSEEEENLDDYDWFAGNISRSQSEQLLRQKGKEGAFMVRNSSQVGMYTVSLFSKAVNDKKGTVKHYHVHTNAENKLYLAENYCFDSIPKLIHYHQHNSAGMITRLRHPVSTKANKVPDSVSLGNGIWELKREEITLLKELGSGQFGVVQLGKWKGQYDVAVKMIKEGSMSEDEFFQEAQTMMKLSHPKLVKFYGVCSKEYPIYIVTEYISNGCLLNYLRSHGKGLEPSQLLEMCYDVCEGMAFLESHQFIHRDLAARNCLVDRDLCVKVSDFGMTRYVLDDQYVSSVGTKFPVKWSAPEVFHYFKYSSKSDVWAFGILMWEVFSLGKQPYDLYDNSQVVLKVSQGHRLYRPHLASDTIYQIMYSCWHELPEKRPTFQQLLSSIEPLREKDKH
As to the kind of experiment: Displacement of competitive tracer from BMX (unknown origin) assessed as target occupancy at […] preincubated for 15 mins measured for 1 hr relative to control. Particulars: dose 1.5 µM.

The values that follow come from ChEMBL document CHEMBL5104103 (J Med Chem, 2022).

Activity calls are given as the source filed them. The rule behind the calls is not given here. A value given as a limit tells only on which side of the number the result lay.

Sodium-dependent dopamine transporter (Homo sapiens), sequence (Q01959 whole entry): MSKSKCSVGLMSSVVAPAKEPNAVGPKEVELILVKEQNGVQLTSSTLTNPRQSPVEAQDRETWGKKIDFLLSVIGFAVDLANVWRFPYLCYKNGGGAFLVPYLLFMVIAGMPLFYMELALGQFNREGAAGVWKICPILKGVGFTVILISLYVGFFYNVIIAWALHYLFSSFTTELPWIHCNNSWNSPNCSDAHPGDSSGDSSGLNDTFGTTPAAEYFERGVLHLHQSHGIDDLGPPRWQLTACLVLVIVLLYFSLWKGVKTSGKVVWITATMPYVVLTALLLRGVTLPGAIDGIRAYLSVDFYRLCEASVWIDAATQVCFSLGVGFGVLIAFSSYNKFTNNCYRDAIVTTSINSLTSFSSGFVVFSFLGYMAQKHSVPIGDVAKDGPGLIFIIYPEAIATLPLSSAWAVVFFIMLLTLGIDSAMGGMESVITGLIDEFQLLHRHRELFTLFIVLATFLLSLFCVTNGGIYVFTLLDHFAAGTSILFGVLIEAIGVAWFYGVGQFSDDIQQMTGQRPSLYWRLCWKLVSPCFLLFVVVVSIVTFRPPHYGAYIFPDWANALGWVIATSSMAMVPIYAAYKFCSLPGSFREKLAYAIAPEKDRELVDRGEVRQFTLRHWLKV

The term inhibition denotes the change of the read-out against control, counted positive when it falls. For orientation: NOAEL means the highest dose or exposure tested at which no adverse effect was seen. The term IC50 denotes the point on the concentration scale where inhibition reaches its midpoint. With `CC(C)(C)/C=C(\C#N)C(=O)N1CCC[C@@H](n2nc(-c3ccc(Oc4ccccc4)cc3F)c3c(N)ncnc32)C1` [ATUZABRUTINIB], in data set [1], the microsomal CLint was 54 µL/min/mg. In addition, the Activity in [2] is 86%; in [4], -7%; in data set [9] it was “Non-Toxic”; in [10], “Toxic”; in data set [11] it was 85%; in the data set with Rattus norvegicus it was “Dde”. The Activity was 1% in [13], 82% in data set [15], “Non-Toxic” in data set [16] and 90% in data set [17]. Also, the inhibition in data set [3] is over 50%. Also, the NOAEL in data set [5] came out at 120 mg/kg. The values for the concentration at 6 h in [6], in data set [8] and in data set [12] were 40.2 ng/mL, 111 ng/mL and 5.2 ng/mL, respectively. Further, the concentration at 12 h in [7] is 10 ng/mL. The outcome in the data set on Canis lupus familiaris was Active. This molecule had a half-inhibitory concentration (IC50) in [14] of 2100 nM.
